Laboratory results as given in patent US4269857A, “Control of plant-virus diseases” (Kureha Kagaku Kogyo Kabushiki Kaisha, priority 1978, dated 1981).
Like-named read-outs stand apart in the source and are kept apart here.

How the values were obtained:
[1] = test system: tobacco mosaic virus (TMV); test: Inhibition of local lesion formation by TMV, half-leaf method on kidney bean primary leaves; type: in vivo, tobacco mosaic virus on kidney bean plants (variety: Otebo); conditions: for inhibition at 500 ppm: Tobacco mosaic virus, read-out: Evaluation (rate of inhibition of lesion spot formation)
From the text: (§1) In the experiments one of the compounds of the present invention was formulated as in the above-mentioned Example 3 and after diluting the formulated composition with water to a predetermined concentration.
In this test, the inhibiting action of the compound of the present invention against the formation of local lesion due to the infection of tobacco mosaic virus (TMV) was examined by the half-leaf method using primary leaves of kedny been plants (variety: Otebo). TMV was inoculated on the primary leaf of kedney been plant, and just after the inoculation, the diluted liquid of the compound was painted on the half surface of the leaf and water was painted on the other half surface of the leaf. The concentration of the compounds of the present invention in the liquid was 500 ppm, and the inoculum was adjusted to form about 50 topical lesion spots on the half surface of the leaf painted with water (control). Ten leaves were usually used for the evaluation of one compound, and the rate of inhibition of lesion spot formation was derived from the following formula: [formula]
The thus obtained rates of inhibition were evaluated according to the following criteria: […]

[2] = test system: cucumber mosaic virus (CMV); test: Inhibition of CMV disease transmitted by aphids (Myzus persicae) on cucumber plants; type: in vivo; conditions: CMV via wingless aphids, 500 ppm, sprayed before aphid transmigration, one week after spray
From the text: as §1, with “The followings are the test results of the compounds of the present invention in the plant virus disease-controlling experiments. In” for “In”
The compounds evaluated as A in Test results 2 were further tested as follows:
The cucumber plants growing for two weeks after sowing in greenhouse were sprayed by each liquid containing each compound at a concentration of 500 ppm (variety of cucumber: Kinseisanto). After drying at room temperature about 3 hours, wingless aphids (Myzus persicae, Sulzer) which had been put on the suffered cucumber plant from CMV and shipped the plant sap containing CMV were transmigrated to the sprayed cucumber plants at a rate of 5 insects per plant. On the next day of the transmigration, the insects were killed by spraying dichlorvos in the plants. After one week of the spray of the compound of the present invention, the effectiveness of the compound in inhibiting the occurrence of the sign of disease due to the virus was investigated as the number of plants without the sign of disease per number of plants sprayed. As the control, water was sprayed.

[3] = TMV, kidney bean primary leaves, 500 ppm, painted just after inoculation, half-leaf method

| SMILES | Evaluation (rate of inhibition of lesion spot formation) [1, 3] | Evaluation (number of plants without the sign of disease per number of plants sprayed) [2] | inhibition at 500 ppm [1, 3] [%] | other results |
| --- | --- | --- | --- | --- |
| CCCCCCCCCCCCNC[C@H](O)[C@H](O)[C@H](O)CO [Compound 48] | A (100-90) | A (10/10-8/10) |  |  |
| CCCCCCCCCCCCCCCCCCNC[C@H](O)[C@@H](O)[C@H](O[C@@H]1O[C@H](CO)[C@@H](O)[C@H](O)[C@H]1O)[C@H](O)CO [Compound 62] |  |  | 70 to 90 |  |
| CCCCCCCCCCCCNC[C@@H](O)[C@@H](O)[C@H](O)[C@H](O)CO [Compound 30] | B (90-70) |  |  |  |
| CCCCCCCCCCNC[C@@H](O)[C@@H](O)[C@H](O)[C@H](O)CO [Compound 27] |  | B (7/10-5/10) |  |  |
| CCCCCCCCCCCCCCCCNC[C@H](O)[C@@H](O)[C@H](O)[C@H](O)CO [Compound 23] |  |  | 70 to 90 |  |
| CCCCCCCCCCCCCCNC[C@H](O)[C@@H](O)[C@H](O)CO [Compound 54] | A (100-90) |  |  |  |
| CCCCCCCCCCCCNC[C@H](O)[C@@H](O)[C@@H](O)[C@H](O)CO [Compound 35] |  |  | 70 to 90 |  |
| CCCCCCCCCCCCNC[C@H](O)[C@@H](O)[C@@H](O)[C@H](O)CO [Compound 36] | B (90-70) |  |  |  |
| CCCCCNC[C@H](O)[C@@H](O)[C@H](O)[C@H](O)CO [Compound 5] |  |  | 70 to 90 |  |
| CCCCCCCCCCCCCCNC[C@H](O)[C@@H](O)[C@H](O)[C@H](O)CO [Compound 18] |  |  | 70 to 90 |  |
| CCCCCCCCCCCCNC[C@H](O)[C@@H](O)[C@H](O)CO [Compound 52] |  | A (10/10-8/10) | 90 to 100 |  |
| CCCCCCCCCCCCCCNC[C@@H](O)[C@@H](O)[C@H](O)[C@H](O)CO [Compound 33] |  |  | 70 to 90 |  |
| CCCCCCCCCCCCCCCNC[C@H](O)[C@@H](O)[C@H](O)[C@H](O)CO [Compound 20] |  |  | 70 to 90 |  |
| CCCCCCCCCCCCNC[C@H](O)[C@H](O)[C@@H](O)[C@H](C)O [Compound 38] |  |  | 70 to 90 |  |
| CCCCCCCCCCCCNC[C@H](O)[C@H](O)[C@H](O)CO [Compound 44] | B (90-70) |  |  |  |
| CCCCCCCCCCCCNC[C@H](O)[C@@H](O)[C@@H](O)[C@H](O)CO [Compound 37] | B (90-70) |  |  |  |
| CCCCCCCCCCCCCCCCCCNC[C@H](O)[C@@H](O)[C@H](O)[C@H](O)CO [Compound 24, 1-deoxy-1-n-octadecylamino-D-glucitol] |  | A (10/10-8/10) | 90 to 100 |  |
| CCCCCCCCCCCCNC[C@H](O)[C@H](O)[C@H](O)CO [Compound 47] | A (100-90) |  |  |  |
| CCCCCCCCCCCCNC[C@@H](O)[C@@H](O)[C@H](O)[C@H](O)CO [Compound 28] |  |  | 90 to 100 |  |
| CCCCCCCCCCNC[C@H](O)[C@@H](O)[C@H](O)CO [Compound 51] | A (100-90) |  |  |  |
| CCCCCCNC[C@H](O)[C@@H](O)[C@H](O)[C@H](O)CO [Compound 7] |  |  | 70 to 90 |  |
| CCCCCCCCCCNC[C@H](O)[C@@H](O)[C@H](O)[C@H](O)CO [Compound 10] |  | B (7/10-5/10) | 90 to 100 |  |
| CCCCCCCCCCCCNC[C@H](O)[C@@H](O)[C@H](O)[C@H](O)CO [Compound 16] | A (100-90) | A (10/10-8/10) |  |  |
| CCCCCCCCCCCCNCC[C@@H](O)[C@H](O)[C@H](O)CO [Compound 41] |  |  | 90 to 100 |  |
| CCCCCCCCCCCCCCNC[C@H](O)[C@H](O)[C@H](O)CO [Compound 49] |  | A (10/10-8/10) | 90 to 100 |  |

| SMILES | Evaluation (rate of inhibition of lesion spot formation) [1, 3] | Evaluation (number of plants without the sign of disease per number of plants sprayed) [2] | inhibition at 500 ppm [1, 3] [%] | other results |
| --- | --- | --- | --- | --- |
| CCCCCCCCCCCCNC[C@H](O)[C@@H](O)[C@H](O)[C@H](O)CO [Compound 12] |  | A (10/10-8/10) | 90 to 100 |  |
| CCCCCCCCCCCCNC[C@@H](O)[C@@H](O)[C@H](O)[C@H](O)CO [Compound 31] | A (100-90) |  |  |  |
| CCCCCCCCCCCCCCCCCCNC[C@H](O)[C@@H](O)[C@H](O[C@H]1O[C@H](CO)[C@@H](O)[C@H](O)[C@H]1O)[C@H](O)CO [Compound 57] | B (90-70) |  |  |  |
| CCCCCCCCCCNC[C@@H](O)[C@@H](O)[C@H](O)[C@H](O)CO [Compound 26] |  | B (7/10-5/10) | 90 to 100 |  |
| CCCCNC[C@H](O)[C@@H](O)[C@H](O)[C@H](O)CO [Compound 3] |  |  |  | inhibition at 500 ppm [1]: 70 to 90% |
| CCCCCCCCCCCCNC[C@H](O)[C@@H](O)[C@H](O)[C@H](O)CO [Compound 15] | A (100-90) | A (10/10-8/10) |  |  |
| CCCCCCCCCCCCNCC[C@@H](O)[C@H](O)[C@H](O)CO [Compound 42] | B (90-70) |  |  |  |
| CCCCCCCCCCCCNC[C@H](O)[C@@H](O)[C@H](O)[C@H](O)CO [Compound 17] | B (90-70) |  |  |  |
| CCCCCCCCCCCCNC[C@H](O)[C@@H](O)[C@H](O[C@@H]1O[C@H](CO)[C@H](O)[C@H](O)[C@H]1O)[C@H](O)CO [Compound 58] |  | B (7/10-5/10) | 90 to 100 |  |
| CCCCCCCCCCCCNC[C@H](O)[C@@H](O)[C@H](O[C@@H]1O[C@H](CO)[C@@H](O)[C@H](O)[C@H]1O)[C@H](O)CO [Compound 61] |  | B (7/10-5/10) | 90 to 100 |  |
| CCCCCCCCCCCCCCCCCCNC[C@H](O)[C@@H](O)[C@H](O[C@@H]1O[C@H](CO)[C@H](O)[C@H](O)[C@H]1O)[C@H](O)CO [Compound 59] |  |  | 90 to 100 |  |
| CCCCCCCCNC[C@H](O)[C@@H](O)[C@H](O)[C@H](O)CO [Compound 8] |  |  | 70 to 90 |  |
| CCCCCCCCCCCCNC[C@H](O)[C@H](O)[C@H](O)CO [Compound 46] | A (100-90) |  |  |  |
| CCCCCCCCCCCCNC[C@H](O)[C@@H](O)[C@H](O)[C@H](O)CO [Compound 13] | A (100-90) | A (10/10-8/10) |  |  |
| CCCCCCCCCCNC[C@H](O)[C@@H](O)[C@H](O)CO [Compound 50] |  |  | 70 to 90 |  |
| CCCCCCCCCCCCCCNC[C@H](O)[C@@H](O)[C@H](O)CO [Compound 53] |  | A (10/10-8/10) | 90 to 100 |  |
| CCCCCCCCCCCCNC[C@@H](O)[C@@H](O)[C@H](O)[C@H](O)CO [Compound 32] | A (100-90) |  |  |  |
| CCCCCCCCCCCCCCCCCCNC[C@H](O)[C@@H](O)[C@H](O[C@H]1O[C@H](CO)[C@@H](O)[C@H](O)[C@H]1O)[C@H](O)CO [Compound 56] |  |  | 90 to 100 |  |
| CCCCCCCCCCCCNC[C@H](O)[C@@H](O)[C@H](O)[C@H](O)CO [Compound 14] | A (100-90) | B (7/10-5/10) |  |  |
| CCCCCCCCCCCCCCCCCCNC[C@H](O)[C@@H](O)[C@H](O[C@@H]1O[C@H](CO)[C@@H](O)[C@H](O)[C@H]1O)[C@H](O)CO [Compound 63] | B (90-70) |  |  |  |
| CCCCCCCCCCCCNCC[C@H](O)[C@H](O)CO [Compound 55] |  | A (10/10-8/10) | 90 to 100 |  |
| CCCCCCCCCCNC[C@H](O)[C@H](O)[C@H](O)CO [Compound 43] |  |  | 90 to 100 |  |
| CCCCCCCCCCCCCCCCCCNC[C@H](O)[C@@H](O)[C@H](O[C@@H]1O[C@H](CO)[C@H](O)[C@H](O)[C@H]1O)[C@H](O)CO [Compound 60] | B (90-70) |  |  |  |
| CCCCCCCCCCCCNC[C@H](O)[C@H](O)[C@H](O)CO [Compound 45] |  |  | 70 to 90 |  |
| CCCCCCCCCCCCNC[C@@H](O)[C@@H](O)[C@H](O)[C@H](O)CO.Cl [Compound 29, 1-deoxy-1-n-dodecylamino-D-mannitol hydrochloride] | A (100-90) | B (7/10-5/10) |  |  |
